# Laboratory results from PMC12196476, “New Nitrogen-, Oxygen-, and Sulfur-Containing Heterocyclic Compounds as Anti-Colon Cancer Agents: Synthesis, Multitargeted Evaluations, Molecular Docking Simulations and ADMET Predictions” (Pharmaceuticals, 2025).
# Tests used:
# [1] = tested on: HCT-116 cells; test: Cell cycle assay (PI flow cytometry), HCT-116; format: cell-based, human; conditions: 30 µg/mL, 48 h, mean of n = 2 (Figure 1E); untreated control 47.37 ± 1.68%
# Protocol: Cell proliferation depends on orderly progression through the phases of the cell cycle (G1−S−G2−M). Cytotoxic agents can impair the integrity of DNA, leading to checkpoint arrest at G1/S or G2/M, which subsequently blocks proliferation. To evaluate the impact of compound 3d on cell cycle distribution, colon carcinoma cells were treated with 30 µg/mL of 3d for 48 h, followed by DNA content analysis using flow cytometry. […] In contrast, in HCT-116 cells, 3d caused an accumulation in the G1 phase, reaching 60.17 ± 1.44% versus 47.37 ± 1.68% in untreated cells (Figure 1E). […]
# (§1) medium served used as negative and positive controls, respectively. Percentages of viable cells […]
# (§2) wells (final concentration of 100 μg/mL), compared to the negative control, and expressed as mean value (%) ± SD from two replicates. Graphing dose-response curves representing the compound […]
# (§3) (HUVECs) at final concentration of 100 μg/mL . HUVECs were grown in Dulbecco’s Modified Eagle’s Medium supplemented with 10% FBS, 2 mM glutamine (Sigma Aldrich), 100 units/mL penicillin and […] streptomycin (Life Technologies; Paisley, UK).
# (§4) S3.2.5. Cell cycle assay.
# (§5) HCT-116 and LoVo cultures upon treatment with compound 3d. HCT-116 and LoVo carcinoma […]
# (§6) μg/mL for 48 h. […] Then, cells […]
# (§7) of stained cancerous cells were determined. […]
# carcinoma cells treated with compound 3d was assessed using the TMRE Mitochondrial Membrane
# [2] = tested on: LoVo cells; test: Mitochondrial membrane potential (TMRE staining), LoVo; format: cell-based, human; conditions: 30 µg/mL, 48 h
# Protocol: To assess mitochondrial integrity, TMRE staining was used to measure ΔΨm.
# The mitochondrial transmembrane potential was measured using a tetramethylrhodamine, ethyl ester (TMRE) mitochondrial membrane potential assay kit. […]
# as §1, §2, §3, §4, §5, §6
# were fixed by mixing […] of 90% cold ethanol and stained with propidium iodide (PI) for 1 h at 37 °C. […]
# as §7
# carcinoma cells treated with compound 3d was assessed using the TMRE Mitochondrial Membrane […]
# for TMRE staining. TMRE was excited using a 488 nm laser and detected in the FL2 channel at 575 […]
# S3.2.9. Quantification of the Expression Levels of Bax, Bcl-2 and Caspase-3 Genes […]
# [3] = Cell viability, LDH release assay, normal HUVECs; conditions: human, normal HUVECs, Mean % of viable cells ± SD, HUVEC
smiles,measurement,setting,value
"COc1cc(/C=N/c2ncnc3sc4c(c23)CCCC4)cc(OC)c1OC [Compound 3d, (E)-N-(5,6,7,8-Tetrahydrobenzo[4,5]thieno[2,3-d]pyrimidin-4-yl)-1-(3,4,5-trimethoxyphenyl)methanimine]","% of Cell population, HCT-116: %G1",[1],60.17 ± 1.44%
same,"Reduction of mitochondrial membrane potential (ΔΨm), LoVo cells",[2],60.23 ± 1.87%
same,"viability at 48 h, 100 µg/mL",[3],~90%
